Measurements published in patent publication US8846704B2, “Thiopyrimidine-based compounds and uses thereof” (YM Biosciences Austraila Pty Ltd, priority 2007, dated 2014).

Legend:
human JAK3 = target: T1, human JAK3 (Homo sapiens, UniProt P52333); test: Alphascreen tyrosine kinase enzyme assay, JAK3 kinase domain; type: biochemical; details: read-out: JAK3 IC50_nM
T1 construct: The kinase domain of human JAK3 was amplified; GST (N); made in house; host or cells: Sf9 insect cells (baculovirus)
In short: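 GST-affinity-purified human JAK3 kinase domain (baculovirus/Sf9) was pre-incubated 20 min with compound ([…]) in HEPES pH 7.5 buffer with MgCl2, vanadate and Tween 20. Biotinylated peptide substrate ([…]) and ATP were then added; phosphotyrosine was detected by AlphaScreen PY100 acceptor and streptavidin donor beads after 2–3 h.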

CTLL2 = test: Cellular screening, CTLL2 cells, Alamar Blue; type: cell-based; details: Mus musculus, CTLL-2, read-out: CTLL2 IC50_nM
In short: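 CTLL2 cells in late log phase incubated with compound for 40 hr at 37° C, 5% CO2. Viability then read at 544 nm after a further 4-6 hours with Alamar Blue.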

BaF3 wild-type cells = test: Cellular screening, BaF3 wild-type cells, Alamar Blue; type: cell-based; details: Mus musculus, 40 hr, read-out: BAF3wt IC50_nM
In short: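 Cells were cultured in DMEM with 10% FCS and 10% WEHI 3B conditioned medium, and suspensions were prepared at 1.1× final (50,000–200,000 cells/mL). Compounds from 20 μM dilution plates were added at 10× final and incubated for 40 hr at 37° C, 5% CO2. Alamar Blue was then added for 4–6 hours and read at 544 nm.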

T1 sequence (P52333 822-1111 limits assumed): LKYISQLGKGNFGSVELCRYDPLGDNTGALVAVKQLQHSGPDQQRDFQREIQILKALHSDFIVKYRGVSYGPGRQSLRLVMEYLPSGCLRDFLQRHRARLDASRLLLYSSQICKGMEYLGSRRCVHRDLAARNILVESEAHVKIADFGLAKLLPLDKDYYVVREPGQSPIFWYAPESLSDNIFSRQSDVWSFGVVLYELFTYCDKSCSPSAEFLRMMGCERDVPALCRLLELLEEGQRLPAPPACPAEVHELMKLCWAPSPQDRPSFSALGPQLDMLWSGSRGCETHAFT

| Structure (SMILES) | IC50 (human JAK3) | IC50 (CTLL2) | IC50 (BaF3 wild-type cells) |
| --- | --- | --- | --- |
| C=CC(=O)Nc1cccc(Nc2nccc(Sc3cccc(OC)c3)n2)c1 [Compound 31, N-(3-(4-(3-methoxyphenylthio)pyrimidin-2-ylao)phenyl)acrylamide] | < 0.1 µM | < 1 µM | < 20 µM |
| C=CC(=O)Nc1ccc(Sc2ccnc(Nc3ccc(OC)cc3)n2)cc1 [Compound 74, N-(4-(2-(4-methoxyphenylao)pyrimidin-4-ylthio)phenyl)acrylamide] | < 0.1 µM | < 5 µM | > 20 µM |
| CC(=O)Nc1ccc(Sc2ccnc(Nc3ccc(N4CCC(N5CCCC5)CC4)cc3)n2)cc1 [Compound 86, N-(4-(2-(4-(4-(pyrrolidin-1-yl)piperidin-1-yl)phenylao)pyrimidin-4-ylthio)phenyl)acetamide] | < 0.5 µM | < 5 µM | < 5 µM |
| C=CC(=O)Nc1ccc(Sc2ccnc(Nc3ccc(N4CCC(N5CCCC5)CC4)cc3)n2)cc1 [Compound 87, N-(4-(2-(4-(4-(pyrrolidin-1-yl)piperidin-1-yl)phenylao)pyrimidin-4-ylthio)phenyl)acrylamide] | < 0.1 µM | < 1 µM | < 5 µM |
| N#CCC(=O)Nc1ccc(Sc2ccnc(Nc3ccc(N4CCC(N5CCCC5)CC4)cc3)n2)cc1 [Compound 88, 2-cyano-N-(4-(2-(4-(4-(pyrrolidin-1-yl)piperidin-1-yl)phenylao)pyrimidin-4-ylthio)phenyl)acetamide] | < 0.5 µM | < 20 µM | < 5 µM |
| C=CC(=O)N(C)c1ccc(Sc2ccnc(Nc3ccc(N4CCOCC4)cc3)n2)cc1 [Compound 91, N-methyl-N-(4-(2-(4-morpholinophenylao)pyrimidin-4-ylthio)phenyl)acrylamide] | < 0.1 µM | < 1 µM | > 20 µM |
| C=CC(=O)Nc1ccc(Sc2ccnc(Nc3ccc(OC)c(O)c3)n2)cc1 [Compound 97] | < 0.1 µM | < 1 µM | < 20 µM |
| C=CC(=O)Nc1ccc(Sc2ccnc(Nc3ccc(N4CCS(=O)(=O)CC4)cc3)n2)cc1 [Compound 99, N-{4-[(2-{[4-(1,1-dioxo-1λ^6,4-thiomorpholin-4-yl)phenyl]ao}pyrimidin-4-yl)sulfanyl]phenyl}prop-2-enamide] | < 0.1 µM | – | – |
| COc1ccc(Nc2nccc(Sc3ccc(NC(=O)CC#N)cc3)n2)cc1OC [Compound 101, 2-cyano-N-(4-(2-(3,4-dimethoxyphenylao)pyrimidin-4-ylthio)phenyl)acetamide] | > 1 µM | < 20 µM | < 1 µM |
| CC#CC(=O)Nc1ccc(Sc2ccnc(Nc3ccc(N4CCOCC4)cc3)n2)cc1 [Compound 104, N-(4-(2-(4-morpholinophenylao)pyrimidin-4-ylthio)phenyl)but-2-ynamide] | < 0.1 µM | < 5 µM | > 20 µM |
| C=CC(=O)Nc1ccc(Sc2ccnc(Nc3cccc(OC)c3)n2)cc1 [Compound 105, N-(4-(2-(3-methoxyphenylao)pyrimidin-4-ylthio)phenyl)acrylamide] | < 0.1 µM | < 20 µM | > 20 µM |
| COc1cc(Sc2ccnc(Nc3ccc(N4CCOCC4)cc3)n2)ccc1N [Compound 117, 4-(4-ao-3-methoxyphenylthio)-N-(4-morpholinophenyl)pyrimidin-2-ae] | < 0.5 µM | < 20 µM | < 5 µM |
| C=CC(=O)Nc1ccc(Sc2ccnc(Nc3cccc(C#N)c3)n2)cc1 [Compound 118, N-(4-(2-(3-cyanophenylao)pyrimidin-4-ylthio)phenyl)acrylamide] | < 0.1 µM | > 20 µM | > 20 µM |
| C=CC(=O)Nc1cccc(Sc2ccnc(Nc3ccc(OC)cc3)n2)c1 [Compound 120, N-(3-(2-(4-methoxyphenylao)pyrimidin-4-ylthio)phenyl)acrylamide] | < 0.1 µM | < 5 µM | > 20 µM |
| C=CC(=O)Nc1ccc(Sc2nc(Nc3ccc(N4CCOCC4)cc3)ncc2C)cc1 [Compound 124, N-(4-(5-methyl-2-(4-morpholinophenylao)pyrimidin-4-ylthio)phenyl)acrylamide] | < 0.1 µM | < 1 µM | > 20 µM |
| CC#CC(=O)Nc1ccc(Sc2nc(Nc3ccc(N4CCOCC4)cc3)ncc2C)cc1 [Compound 125, N-(4-(5-methyl-2-(4-morpholinophenylao)pyrimidin-4-ylthio)phenyl)but-2-ynamide] | < 0.1 µM | < 5 µM | > 20 µM |
| Cc1cnc(Nc2ccc(N3CCOCC3)cc2)nc1Sc1ccc(N)cc1 [Compound 126, 4-(4-aophenylthio)-5-methyl-N-(4-morpholinophenyl)pyrimidin-2-ae] | < 0.1 µM | < 5 µM | > 20 µM |

| Structure (SMILES) | IC50 (human JAK3) | IC50 (CTLL2) | IC50 (BaF3 wild-type cells) |
| --- | --- | --- | --- |
| c1cn(Cc2ccc(Sc3ccnc(Nc4ccc(N5CCOCC5)cc4)n3)cc2)cn1 [Compound 127, 4-(4-((1H-imidazol-1-yl)methyl)phenylthio)-N-(4-morpholinophenyl)pyrimidin-2-ae] | < 0.5 µM | < 20 µM | > 20 µM |
| C=CC(=O)Nc1ccc(Sc2ccnc(Nc3ccc(C#N)cc3)n2)cc1 [Compound 131, N-(4-(2-(4-cyanophenylao)pyrimidin-4-ylthio)phenyl)acrylamide] | < 0.1 µM | < 20 µM | < 5 µM |
| CC(=O)Nc1ccc(Sc2nc(Nc3ccc(N4CCOCC4)cc3)ncc2C)cc1 [Compound 135, N-(4-(5-methyl-2-(4-morpholinophenylao)pyrimidin-4-ylthio)phenyl)acetamide] | < 0.5 µM | – | – |
| Cc1cnc(Nc2ccc(N3CCOCC3)cc2)nc1Sc1ccc(C#N)cc1 [Compound 136, 4-(5-methyl-2-(4-morpholinophenylao)pyrimidin-4-ylthio)benzonitrile] | < 0.5 µM | > 20 µM | > 20 µM |
| CCOC(=O)c1nccn1Cc1ccc(Sc2ccnc(Nc3ccc(N4CCOCC4)cc3)n2)cc1 [Compound 148, ethyl 1-(4-(2-(4-morpholinophenylao)pyrimidin-4-ylthio)benzyl)-1H-imidazole-2-carboxylate] | < 0.5 µM | < 20 µM | < 20 µM |
| NC(=O)c1nccn1Cc1ccc(Sc2ccnc(Nc3ccc(N4CCOCC4)cc3)n2)cc1 [Compound 149, 1-(4-(2-(4-morpholinophenylao)pyrimidin-4-ylthio)benzyl)-1H-imidazole-2-carboxamide] | < 0.5 µM | < 20 µM | < 5 µM |
| N#Cc1nccc(Sc2ccc(Sc3ccnc(Nc4ccc(N5CCOCC5)cc4)n3)cc2)n1 [Compound 154, 4-(4-(2-(4-morpholinophenylao)pyrimidin-4-ylthio)phenylthio)pyrimidine-2-carbonitrile] | < 0.5 µM | < 5 µM | < 5 µM |
| C=CC(=O)Nc1ccc(Sc2ccnc(Nc3ccc(N4CCOCC4)cc3)n2)c(Cl)c1C [Compound 161, N-(3-chloro-2-methyl-4-(2-(4-morpholinophenylao)pyrimidin-4-ylthio)phenyl)acrylamide] | < 0.1 µM | < 5 µM | > 20 µM |
| C=CC(=O)Nc1cc(C)c(Sc2nc(Nc3ccc(N4CCOCC4)cc3)ncc2C)c(C)c1 [Compound 164, N-(3,5-dimethyl-4-(5-methyl-2-(4-morpholinophenylao)pyrimidin-4-ylthio)phenyl)acrylamide] | < 0.1 µM | < 1 µM | > 20 µM |
| Cc1cnc(Nc2ccc(N3CCOCC3)cc2)nc1Sc1ccc2c(c1)CCCN2 [Compound 166, 5-methyl-N-(4-morpholinophenyl)-4-(1,2,3,4-tetrahydroquinolin-6-ylthio)pyrimidin-2-ae] | < 0.5 µM | < 20 µM | < 20 µM |
| C=CC(=O)Nc1ccc(Sc2nc(Nc3ccc(N4CCOCC4)cc3)ncc2C)c(Cl)c1C [Compound 171, N-(3-chloro-2-methyl-4-(5-methyl-2-(4-morpholinophenylao)pyrimidin-4-ylthio)phenyl)acrylamide] | < 0.1 µM | < 20 µM | > 20 µM |
| CSc1nc(Nc2ccc(N3CCOCC3)cc2)ncc1C [Compound 176, 5-methyl-4-(methylthio)-N-(4-morpholinophenyl)pyrimidin-2-ae] | < 1 µM | < 5 µM | < 5 µM |
| Cc1cnc(Nc2ccc(N3CCOCC3)cc2)nc1Sc1ccc(NC(=O)COCC(=O)O)cc1 [Compound 188, 2-(2-(4-(5-methyl-2-(4-morpholinophenylao)pyrimidin-4-ylthio)phenylao)-2-oxoethoxy)acetic acid] | < 0.1 µM | > 20 µM | > 20 µM |
| C=CC(=O)Nc1ccc(Sc2nc(Nc3ccccc3O)ncc2C)cc1 [Compound 287, N-(4-(2-(2-hydroxyphenylao)-5-methylpyrimidin-4-ylthio)phenyl)acrylamide] | < 0.1 µM | – | – |
| C=CC(=O)Nc1ccc(Sc2ccnc(Nc3cccc(Cl)c3)n2)cc1 [Compound 348, N-(4-(2-(3-chlorophenylao)pyrimidin-4-ylthio)phenyl)acrylamide] | < 0.1 µM | – | – |
| C=CC(=O)Nc1ccc(Sc2ccnc(Nc3ccc(C(=O)OC)cc3)n2)cc1 [Compound 357, methyl 4-(4-(4-acrylamidophenylthio)pyrimidin-2-ylao)benzoate] | < 0.1 µM | – | – |
